Where two headings read alike, the source gives them in different places.
Legend:
BaF3-tel-FLT3-R834Q = experiment: cells; parameters: species or system Ba/F3 stable lines
BaF3-FLT3-ITD-N676D = experiment: cells; parameters: species or system Ba/F3 stable lines
EOL-1^PDGFRα = experiment: cells; parameters: species or system human leukemia lines named per line
HL60^Flt3-WT = experiment: cells; parameters: species or system human leukemia lines named per line
KG1^FGFR1OP2-FGFR1 = experiment: cells; parameters: species or system human leukemia lines named per line
U937^Flt3-WT = experiment: cells; parameters: species or system human leukemia lines named per line
MOLT4^Flt3-WT = experiment: cells; parameters: species or system human leukemia lines named per line
BaF3-FLT3-ITD-D835Y = experiment: cells; parameters: species or system Ba/F3 stable lines
BaF3-tel-FLT3-D835Y = experiment: cells; parameters: species or system Ba/F3 stable lines
BaF3-FLT3-MOLM-ITD = experiment: cells; parameters: species or system Ba/F3 stable lines
BaF3-FLT3-D835H = experiment: cells; parameters: species or system Ba/F3 stable lines
BaF3-FLT3-D835V = experiment: cells; parameters: species or system Ba/F3 stable lines
BaF3-FLT3-ITD-Y842H = experiment: cells; parameters: species or system Ba/F3 stable lines
BaF3-tel-FLT3-K663Q = experiment: cells; parameters: species or system Ba/F3 stable lines
NB4^Flt3-WT = experiment: cells; parameters: species or system human leukemia lines named per line; settings: read-out: Quizaritinib (AC220); 72 h proliferation, mean ± SD; inhibitor
MOLM-13^Flt3-ITD = experiment: cells; parameters: species or system human leukemia lines named per line
THP1^Flt3-WT = experiment: cells; parameters: species or system human leukemia lines named per line
MV411^Flt3-ITD = experiment: cells; parameters: species or system human leukemia lines named per line
MEG01^Flt-WT = experiment: cells; parameters: species or system human leukemia lines named per line; settings: read-out: Quizaritinib (AC220); 72 h proliferation, mean ± SD; inhibitor
BaF3-FLT3-ITD-D835N = experiment: cells; parameters: species or system Ba/F3 stable lines; settings: read-out: Quizartinib / (AC220); 72 h proliferation; inhibitor
BaF3-FLT3-ITD-Y842R = experiment: cells; parameters: species or system Ba/F3 stable lines; settings: read-out: Quizartinib / (AC220); 72 h proliferation; inhibitor
BaF3-FLT3-ITD-G697R = experiment: cells; parameters: species or system Ba/F3 stable lines; settings: read-out: Quizartinib / (AC220); 72 h proliferation; inhibitor
BaF3-FLT3-ITD-F691I = experiment: cells; parameters: species or system Ba/F3 stable lines; settings: read-out: Quizartinib / (AC220); 72 h proliferation; inhibitor
BaF3-Tel-FLT3-ITD = experiment: cells; parameters: species or system Ba/F3 stable lines; settings: read-out: Quizartinib / (AC220); 72 h proliferation; inhibitor
BaF3-FLT3-ITD-D835G = experiment: cells; parameters: species or system Ba/F3 stable lines; settings: read-out: Quizartinib / (AC220); 72 h proliferation; inhibitor
BaF3-tel-FLT3 = experiment: cells; parameters: species or system Ba/F3 stable lines; settings: read-out: Quizartinib / (AC220); 72 h proliferation; inhibitor
BaF3-FLT3-ITD-D835I = experiment: cells; parameters: species or system Ba/F3 stable lines; settings: read-out: Quizartinib / (AC220); 72 h proliferation; inhibitor
BaF3-FLT3-ITD-D835V = experiment: cells; parameters: species or system Ba/F3 stable lines; settings: read-out: Quizartinib / (AC220); 72 h proliferation; inhibitor
PDGFRα = PDGFRα (Homo sapiens, UniProt P16234); experiment: FRET-based Z'-Lyte kinase assay, parallel comparison; assay type: biochemical
Sequence of PDGFRα (P16234 24-1089): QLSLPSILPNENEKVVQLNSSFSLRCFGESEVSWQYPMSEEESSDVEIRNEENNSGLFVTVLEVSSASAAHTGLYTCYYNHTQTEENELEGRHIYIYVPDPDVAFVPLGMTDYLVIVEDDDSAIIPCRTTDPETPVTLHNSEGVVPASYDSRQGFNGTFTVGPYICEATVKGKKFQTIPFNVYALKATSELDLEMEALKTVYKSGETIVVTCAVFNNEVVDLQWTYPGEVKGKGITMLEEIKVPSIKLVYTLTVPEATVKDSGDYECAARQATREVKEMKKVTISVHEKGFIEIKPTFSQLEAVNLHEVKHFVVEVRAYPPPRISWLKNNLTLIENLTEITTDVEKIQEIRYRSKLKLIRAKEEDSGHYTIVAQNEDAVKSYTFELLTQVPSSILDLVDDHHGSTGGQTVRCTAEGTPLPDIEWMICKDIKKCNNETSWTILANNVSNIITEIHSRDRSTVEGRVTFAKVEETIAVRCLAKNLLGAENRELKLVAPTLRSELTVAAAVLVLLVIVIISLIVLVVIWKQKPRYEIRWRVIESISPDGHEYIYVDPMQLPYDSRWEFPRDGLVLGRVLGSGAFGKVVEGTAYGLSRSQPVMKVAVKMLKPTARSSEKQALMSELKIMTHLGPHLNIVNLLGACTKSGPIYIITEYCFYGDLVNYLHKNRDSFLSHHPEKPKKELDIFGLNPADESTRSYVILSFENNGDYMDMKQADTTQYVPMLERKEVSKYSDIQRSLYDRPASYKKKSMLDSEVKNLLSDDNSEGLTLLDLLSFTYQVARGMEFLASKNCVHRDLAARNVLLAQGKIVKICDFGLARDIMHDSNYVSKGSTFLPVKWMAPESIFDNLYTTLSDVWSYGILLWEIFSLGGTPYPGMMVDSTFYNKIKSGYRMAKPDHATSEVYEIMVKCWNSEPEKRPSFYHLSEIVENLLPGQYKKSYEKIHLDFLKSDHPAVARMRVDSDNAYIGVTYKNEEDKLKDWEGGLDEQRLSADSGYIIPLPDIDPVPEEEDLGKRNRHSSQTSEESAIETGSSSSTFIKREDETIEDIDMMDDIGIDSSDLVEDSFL

[1] = Mus musculus, BaF3, 72 h, read-out: Midostaurin / (PKC412)
[2] = 72 h, read-out: GZD824 (HQP1351)
[3] = Mus musculus, BaF3, 72 h, read-out: GZD824
[4] = read-out: Quizaritinib (AC220), 72 h proliferation, mean ± SD, inhibitor
[5] = read-out: Quizartinib / (AC220), 72 h proliferation, inhibitor
[6] = 72 h, read-out: Gilteritinib (ASP2215)

CO[C@@H]1[C@H](N(C)C(=O)c2ccccc2)C[C@H]2O[C@]1(C)n1c3ccccc3c3c4c(c5c6ccccc6n2c5c31)C(=O)NC4 [Midostaurin]
IC50 (BaF3-tel-FLT3-R834Q; [1]): 0.0631 µM | IC50 (BaF3-FLT3-ITD-N676D; [1]): 0.0624 µM

Cc1ccc(C(=O)Nc2ccc(CN3CCN(C)CC3)c(C(F)(F)F)c2)cc1C#Cc1cnc2[nH]ncc2c1 [GZD824]
IC50 (EOL-1^PDGFRα; [2]): 0.00756 ± 0.00273 µM | IC50 (HL60^Flt3-WT; [2]): 0.922 ± 0.21 µM | IC50 (KG1^FGFR1OP2-FGFR1; [2]): 0.00366 ± 0.00193 µM | IC50 (U937^Flt3-WT; [2]): 1.17 ± 0.105 µM | IC50 (MOLT4^Flt3-WT; [2]): 0.246 ± 0.139 µM | IC50 (BaF3-FLT3-ITD-D835Y; [3]): 0.0357 µM | IC50 (BaF3-tel-FLT3-R834Q; [3]): 0.0762 µM | IC50 (BaF3-FLT3-ITD-N676D; [3]): 0.0072 µM | IC50 (BaF3-tel-FLT3-D835Y; [3]): 0.0057 µM | IC50 (BaF3-FLT3-MOLM-ITD; [3]): 0.0008 µM | IC50 (BaF3-FLT3-D835H; [3]): 0.0176 µM | IC50 (BaF3-FLT3-D835V; [3]): 0.0347 µM | IC50 (BaF3-FLT3-ITD-Y842H; [3]): 0.0032 µM | IC50 (BaF3-tel-FLT3-K663Q; [3]): 0.853 µM

CC(C)(C)c1cc(NC(=O)Nc2ccc(-c3cn4c(n3)sc3cc(OCCN5CCOCC5)ccc34)cc2)no1 [quizartinib]
IC50 (NB4^Flt3-WT): 1.99 ± 0.89 µM | IC50 (EOL-1^PDGFRα; [4]): 1.51 ± 0.451 µM | IC50 (HL60^Flt3-WT; [4]): 1.17 ± 0.0721 µM | IC50 (MOLM-13^Flt3-ITD; [4]): 0.00567 ± 0.00929 µM | IC50 (KG1^FGFR1OP2-FGFR1; [4]): 1.02 ± 0.572 µM | IC50 (THP1^Flt3-WT; [4]): > 1 µM | IC50 (U937^Flt3-WT; [4]): 1.43 ± 0.246 µM | IC50 (MOLT4^Flt3-WT; [4]): 1.95 ± 1.75 µM | IC50 (MV411^Flt3-ITD; [4]): 0.00107 ± 0.00032 µM | IC50 (MEG01^Flt-WT): 3.31 ± 1.56 µM | IC50 (BaF3-FLT3-ITD-D835N): 0.0016 µM | IC50 (BaF3-FLT3-ITD-D835Y; [5]): 0.0355 µM | IC50 (BaF3-tel-FLT3-R834Q; [5]): > 1 µM | IC50 (BaF3-FLT3-ITD-N676D; [5]): 0.0083 µM | IC50 (BaF3-tel-FLT3-D835Y; [5]): 0.0024 µM | IC50 (BaF3-FLT3-ITD-Y842R): 0.0072 µM | IC50 (BaF3-FLT3-ITD-G697R): 0.0228 µM | IC50 (BaF3-FLT3-ITD-F691I): 0.095 µM | IC50 (BaF3-Tel-FLT3-ITD): 0.002 µM | IC50 (BaF3-FLT3-MOLM-ITD; [5]): 0.0008 µM | IC50 (BaF3-FLT3-D835H; [5]): 0.004 µM | IC50 (BaF3-FLT3-D835V; [5]): 0.0402 µM | IC50 (BaF3-FLT3-ITD-D835G): 0.0043 µM | IC50 (BaF3-tel-FLT3): 0.0031 µM | IC50 (BaF3-FLT3-ITD-D835I): 0.183 µM | IC50 (BaF3-FLT3-ITD-Y842H; [5]): 0.0053 µM | IC50 (BaF3-tel-FLT3-K663Q; [5]): > 1 µM | IC50 (BaF3-FLT3-ITD-D835V): 0.126 µM

CCc1nc(C(N)=O)c(Nc2ccc(N3CCC(N4CCN(C)CC4)CC3)c(OC)c2)nc1NC1CCOCC1 [gilteritinib]
IC50 (HL60^Flt3-WT; [6]): 0.689 ± 0.398 µM | IC50 (MOLM-13^Flt3-ITD; [6]): 0.00935 ± 0.00223 µM | IC50 (THP1^Flt3-WT; [6]): > 1 µM | IC50 (MV411^Flt3-ITD; [6]): 0.00334 ± 0.00091 µM | IC50 (PDGFRα): 0.148 ± 0.00778 µM
